“And” between values parts separate entries of the source, which are not always exact repeats. Equal values may be shown once.
Tests used:
[1] = test system: MCF-7 breast adenocarcinoma cells; experiment: MCF-7 Proliferation Assay; format: cell-based; settings: Homo sapiens, MCF7, tritiated thymidine, 48 hours
Description: MCF-7 breast adenocarcinoma cells (ATCC HTB 22) were maintained in MEM (minimal essential medium, phenol red-free, Sigma, St. Louis, Mo.) supplemented with 10% fetal bovine serum (FBS) (V/V), L-glutamine (2 mM), sodium pyruvate (1 mM), HEPES {(N-[2-hydroxyethyl]piperazine-N'-[2-ethanesulfonic acid]10 mM}, non-essential amino acids and bovine insulin (1 ug/mL) (maintenance medium). Ten days prior to assay, MCF-7 cells were switched to maintenance medium supplemented with 10% dextran coated charcoal stripped fetal bovine serum (DCC-FBS) assay medium) in place of 10% FBS to deplete internal stores of steroids. MCF-7 cells were removed from maintenance flasks using cell dissociation medium (Ca++/Mg++free HBSS (phenol red-free) supplemented with 10 mM HEPES and 2 mM EDTA). Cells were washed twice with assay medium and adjusted to 80,000 cells/mL. Approximately 100 μL (8,000 cells) were added to flat-bottom microculture wells (Costar 3596) and incubated at 37° C. in a 5% CO2 humidified incubator for 48 hours to allow for cell adherence and equilibration after transfer. Serial dilutions of drugs or DMSO as a diluent control were prepared in assay medium and 50 μL transferred to triplicate microcultures followed by 50 μL assay medium for a final volume of 200μ. After an additional 48 hours at 37° C. in a 5% CO2 humidified incubator, microcultures were pulsed with tritiated thymidine (1 uCi/well) for 4 hours. Cultures were terminated by freezing at -70° C. for 24 hours followed by thawing and harvesting of microcultures using a Skatron Semiautomatic Cell Harvester. Samples were counted by liquid scintillation using a Wallac BetaPlace β counter. Results in Table 4 below show the IC50 for certain compounds of the present invention.

[2] = test system: Uterine Eosinophil Peroxidase (EPO); experiment: Uterine Eosinophil Peroxidase (EPO) Assay (Table 1); format: in vivo, female Sprague Dawley rats; set-up: key to Uterine EPO (V. max): Vmax of absorbance increase at 450 nm, monitored over 1 min; settings: for Uterine EPO (V. max): OVX rats, daily for 4 days
From the text: (§1) Seventy-five day old female Sprague Dawley rats (weight range of 200 to 225 g) were obtained from Charles River Laboratories (Portage, Mich.). The animals were either bilaterally ovariectomized (OVX) or exposed to a sham surgical procedure at Charles River Laboratories, and then shipped after one week. Upon arrival, they were housed in metal hanging cages in groups of 3 or 4 per cage and had ad libitum access to food (calcium content approximately 0.5%) and water for one week. Room temperature was maintained at 22.2° ±1.7° C. with a minimum relative humidity of 40%. The photoperiod in the room was 12 hours light and 12 hours dark.
(§2) Dosing Regimen Tissue Collection. After a one week acclimation period (therefore, two weeks post-OVX) daily dosing with test compound was initiated. 17α-ethynyl estradiol or the test compound were given orally, unless otherwise stated, as a suspension in 1% carboxymethylcellulose or dissolved in 20% cyclodextrin. Animals were dosed daily for 4 days. Following the dosing regimen, animals were weighed and anesthetized with a ketamine: Xylazine (2:1, V:V) mixture and a blood sample was collected by cardiac puncture. The animals were then sacrificed by asphyxiation with CO2, the uterus was removed through a midline incision, and a wet uterine weight was determined.
Uterine Eosinomhil Peroxidase (EPO) Assay. Uteri were kept at 4° C. until time of enzymatic analysis. The uteri were then homogenized in 50 volumes of 50 mM Tris buffer (pH-8.0) containing 0.005% Triton X-100. Upon addition of 0.01% hydrogen peroxide and 10 mM O-phenylenediamine (final concentrations) in Tris buffer, increase in absorbance was monitored for one minute at 450 nm. The presence of eosinophils in the uterus is an indication of estrogenic activity of a compound. The maximal velocity of a 15 second interval was determined over the initial, linear portion of the reaction curve.
As is expressed in the below data, estrogenicity also was assessed by evaluating the response of eosinophil infiltration into the uterus.
(§3) The data presented in Table 1 below reflects the response of 5 to 6 rats per treatment.

Serum cholesterol [3] = experiment: Serum cholesterol in ovariectomized rats, 4-day oral dosing (Table 1); format: in vivo, female Sprague Dawley rats; settings: OVX rats; for inhibition in vivo at 0.1 mg/kg / inhibition in vivo at 1 mg/kg / inhibition in vivo at 25 mg/kg / ED50 / inhibition in vivo at 10 mg/kg: Rattus norvegicus, po, 96 h, daily for 4 days; for inhibition in vivo at 0.1 mg/kg: 0.1 mg/kg oral; for inhibition in vivo at 0.1 mg/kg / inhibition in vivo at 1 mg/kg / inhibition in vivo at 25 mg/kg / inhibition in vivo at 10 mg/kg: read-out: Serum Cholesterol (% dec. vs. OVX); for inhibition in vivo at 1 mg/kg: 1 mg/kg oral; for inhibition in vivo at 25 mg/kg: 25 mg/kg oral; for ED50: dose column in mg/kg, read-out: ED50 (effective dose to dec. serum chol. by 50%); for inhibition in vivo at 10 mg/kg: 10 mg/kg oral
From the text: as §1, §2
(§4) Cholesterol Analysis. Blood samples were allowed to clot at room temperature for 2 hours, and serum was obtained following centrifugation for 10 minutes at 3000 rpm. Serum cholesterol was determined using a Boehringer Mannheim Diagnostics high performance cholesterol assay. Briefly the cholesterol was oxidized to cholest-4-en-3-one and hydrogen peroxide. The hydrogen peroxide was then reacted with phenol and 4-aminophenazone in the presence of peroxidase to produce a p-quinone imine dye, which was read spectrophotometrically at 500 nm. Cholesterol concentration was then calculated against a standard curve. The entire assay was automated using a Biomek Automated Workstation.
(§5) Data presented in Table 1 below show comparative results among ovariectomized rats, rats treated with 17α-ethynyl estradiol (EE2; an orally available form of estrogen), and rats treated with certain compounds of the present invention. […] This uterine response to estrogen is well recognized in the art.
as §3

uterus [4] = experiment: Uterine weight in ovariectomized rats, 4-day oral dosing (Table 1); format: in vivo, female Sprague Dawley rats; settings: OVX rats; for change in vivo at 0.1 mg/kg / change in vivo at 10 mg/kg / change in vivo at 25 mg/kg / change in vivo at 1 mg/kg: Rattus norvegicus, po, 96 h, daily for 4 days, read-out: Uterine Wt. (% inc. vs. OVX); for change in vivo at 0.1 mg/kg: 0.1 mg/kg oral; for change in vivo at 10 mg/kg: 10 mg/kg oral; for change in vivo at 25 mg/kg: 25 mg/kg oral; for change in vivo at 1 mg/kg: 1 mg/kg oral
Description: In the examples illustrating the methods, a post-menopausal model was used in which effects of different treatments upon circulating lipids were determined.
as §1, §2, §5, §3

[5] = Osteoporosis Test: body weight change (Table 2); format: in vivo; settings: daily for 35 days, 6-month-old rats
Description: (§6) Following the General Preparation Procedure, infra, the rats were treated daily for 35 days (6 rats per treatment group) and sacrificed by carbon dioxide asphyxiation on the 36th day. The 35 day time period was sufficient to allow maximal reduction in bone density, measured as described herein. At the time of sacrifice, the uteri were removed, dissected free of extraneous tissue, and the fluid contents were expelled before determination of wet weight in order to confirm estrogen deficiency associated with complete ovariectomy. […] In accordance with the above procedures, the compound of Example 9 and ethynyl estradiol (EE2) in 20% hydroxypropyl β-cyclodextrin were orally administered to test animals. Distal femur metaphysis data presented in Tables 2 and 3 below are the results of compound treatments compared to intact and ovariectomized test animals. The rats in the Table 2 tests were 6 months of age rather than 75 days of age (at the beginning of the tests).

uterus [6] = experiment: Osteoporosis Test: uterine weight (Table 2); format: in vivo; settings: daily for 35 days, 6-month-old rats
Description: as §6

Serum cholesterol [7] = experiment: Osteoporosis Test: serum cholesterol (Table 2); format: in vivo; settings: daily for 35 days, 6-month-old rats
Description: as §4
Following the General Preparation Procedure, infra, the rats were treated daily for 35 days (6 rats per treatment group) and sacrificed by carbon dioxide asphyxiation on the 36th day. The 35 day time period was sufficient to allow maximal reduction in bone density, measured as described herein. At the time of sacrifice, the uteri were removed, dissected free of extraneous tissue, and the fluid contents were expelled before determination of wet weight in order to confirm estrogen deficiency associated with complete ovariectomy.
In accordance with the above procedures, the compound of Example 9 and ethynyl estradiol (EE2) in 20% hydroxypropyl β-cyclodextrin were orally administered to test animals. Distal femur metaphysis data presented in Tables 2 and 3 below are the results of compound treatments compared to intact and ovariectomized test animals. The rats in the Table 2 tests were 6 months of age rather than 75 days of age (at the beginning of the tests).

[8] = test system: Femur (distal metaphysis); experiment: Osteoporosis Test: distal femur metaphysis x-ray image / bone density (Table 2); format: in vivo, rats; settings: for Femur (x-ray image) (% protect.): daily for 35 days, 6-month-old rats; for bone density, in words: ovariectomized rats, oral, 35 days
Description: Following the General Preparation Procedure, infra, the rats were treated daily for 35 days (6 rats per treatment group) and sacrificed by carbon dioxide asphyxiation on the 36th day. The 35 day time period was sufficient to allow maximal reduction in bone density, measured as described herein. At the time of sacrifice, the uteri were removed, dissected free of extraneous tissue, and the fluid contents were expelled before determination of wet weight in order to confirm estrogen deficiency associated with complete ovariectomy. […] The right femurs were excised and digitilized x-rays generated and analyzed by an image analysis program (NIH image) at the distal metaphysis. The proximal aspect of the tibiae from these animals were also scanned by quantitative computed tomography. In accordance with the above procedures, the compound of Example 9 and ethynyl estradiol (EE2) in 20% hydroxypropyl β-cyclodextrin were orally administered to test animals. Distal femur metaphysis data presented in Tables 2 and 3 below are the results of compound treatments compared to intact and ovariectomized test animals. The rats in the Table 2 tests were 6 months of age rather than 75 days of age (at the beginning of the tests).

Row | SMILES | IC50 [1] | Uterine EPO (V. max) ([2]; 0.1 mg/kg oral) | Uterine EPO (V. max) ([2]; 25 mg/kg oral) | inhibition in vivo at 0.1 mg/kg (Serum cholesterol [3]) | inhibition in vivo at 1 mg/kg (Serum cholesterol [3]) | inhibition in vivo at 25 mg/kg (Serum cholesterol [3]) | ED50 (Serum cholesterol [3]; oral) | change in vivo at 0.1 mg/kg (uterus [4]) | change in vivo at 10 mg/kg (uterus [4]) | change in vivo at 25 mg/kg (uterus [4]) | inhibition in vivo at 10 mg/kg (Serum cholesterol [3]) | change in vivo at 1 mg/kg (uterus [4]) | Uterine Wt. (% inc. vs. OVX) (uterus [6]; 0.1 mg/kg oral) | Serum Chol. (% dec. vs. OVX) (Serum cholesterol [7]; 0.1 mg/kg oral) | Femur (x-ray image) (% protect.) ([8]; 0.1 mg/kg oral) | bone density, in words [8] | also measured
1 | Oc1ccc(-c2ccc(-c3ccc(O)cc3)c(-c3ccc(OCCN4CCCC4)cc3)n2)cc1 [Example 14, 2-[4-[2-(1-Pyrrolidinyl)ethoxy]phenyl]-3,6-bis(4-hydroxyphenyl)pyridine] | 9 nM | 2.4 |  | 11.9% | -16.5% |  | > 10 mg/kg | 6.3% | 8.8% |  | -7.3% | -3.3% |  |  |  |  | Uterine EPO (V. max) ([2]; 1 mg/kg oral): 4.5; Uterine EPO (V. max) ([2]; 10 mg/kg oral): 4.2
2 | Cc1ccc(-c2ccc(O)cc2)c(-c2ccc(OCCN3CCCC3)cc2)n1 [Example 9, 2-[4-[2-(1-Pyrrolidinyl)ethoxy]phenyl]-3-(4-hydroxyphenyl)-6-methylpyridine] |  |  |  |  |  | 58.5% |  |  | 26.3% | 24.3% | 49.2% |  | -11% | 33.6% | -16.4% | elevated mean bone density in a general, dose-related manner | Body Wt. Change (% dec. vs. OVX) ([5]; 0.01 mg/kg oral): -5%; Body Wt. Change (% dec. vs. OVX) ([5]; 0.1 mg/kg oral): -8.2%; Body Wt. Change (% dec. vs. OVX) ([5]; 25 mg/kg oral): 6.3%; Uterine Wt. (% inc. vs. OVX) (uterus [6]; 0.01 mg/kg oral): -3.5%; Uterine Wt. (% inc. vs. OVX) (uterus [6]; 25 mg/kg oral): -6.8%; Serum Chol. (% dec. vs. OVX) (Serum cholesterol [7]; 0.01 mg/kg oral): 44.4%; Serum Chol. (% dec. vs. OVX) (Serum cholesterol [7]; 1 mg/kg oral): 35.4% and 54.2%; Serum Chol. (% dec. vs. OVX) (Serum cholesterol [7]; 10 mg/kg oral): 35.4% and 42.2%; Serum Chol. (% dec. vs. OVX) (Serum cholesterol [7]; 25 mg/kg oral): 19.7%; Femur (x-ray image) (% protect.) ([8]; 0.01 mg/kg oral): -11.5%; Femur (x-ray image) (% protect.) ([8]; 25 mg/kg oral): 33.3%
3 | C#CC1(O)CCC2C3CCc4cc(O)ccc4C3CCC21C (stereo not drawn) [EE2, 17α-ethynyl estradiol, reference compound] |  |  |  |  |  |  |  |  |  |  |  |  | 128.3% and 226.1% | 73.8% and 73.6% | 41.8% and 25.5% | prevented this loss | eosinophil infiltration into the uterus, in words ([2]; ovariectomized rats): caused a substantial, expected increase in eosinophil infiltration; serum cholesterol, in words (Serum cholesterol [3]; oral, EE2 at 0.1 mg/kg/day): caused a decrease in serum cholesterol; uterine weight, in words (uterus [4]; oral, EE2 at 0.1 mg/kg/day): uterine weight was substantially greater than the uterine weight of ovariectomized control animals

More lines, main results first:

Row | IC50 [1] | SMILES | Uterine EPO (V. max) ([2]; 0.1 mg/kg oral) | Uterine EPO (V. max) ([2]; 25 mg/kg oral) | inhibition in vivo at 0.1 mg/kg (Serum cholesterol [3]) | inhibition in vivo at 1 mg/kg (Serum cholesterol [3]) | inhibition in vivo at 25 mg/kg (Serum cholesterol [3]) | ED50 (Serum cholesterol [3]; oral) | change in vivo at 0.1 mg/kg (uterus [4]) | change in vivo at 10 mg/kg (uterus [4]) | change in vivo at 25 mg/kg (uterus [4]) | inhibition in vivo at 10 mg/kg (Serum cholesterol [3]) | change in vivo at 1 mg/kg (uterus [4]) | Uterine Wt. (% inc. vs. OVX) (uterus [6]; 0.1 mg/kg oral) | Serum Chol. (% dec. vs. OVX) (Serum cholesterol [7]; 0.1 mg/kg oral) | Femur (x-ray image) (% protect.) ([8]; 0.1 mg/kg oral) | bone density, in words [8] | also measured
4 | 470 nM | COc1ccc(-c2ccc(-c3ccc(F)cc3)nc2-c2ccc(OCCN3CCCCC3)cc2)cc1 [Example 6, 2-[4-[2-(1-Piperidinyl)ethoxy]phenyl]-3-(4-methoxyphenyl)-6-(4-fluorophenyl)pyridine] | 6.6 | 22.6 | 4% | 12.3% | 40.8% | 70 mg/kg | 9.5% | 44.2% | 69.5% |  |  |  |  |  |  | 
5 | 185 nM | Oc1ccc(-c2ccc(-c3ccc(F)cc3)nc2-c2ccc(OCCN3CCCCC3)cc2)cc1 [Example 12, 2-[4-[2-(1-Piperidinyl)ethoxy]phenyl]-3-(4-hydroxyphenyl)-6-(4-fluorophenyl)pyridine] | 5.9 | 67.9 | 26.2% |  | 49.9% |  | 9.8% | 76.2% | 68% |  | 4.2% |  |  |  |  | 

From patent US5672609A, “Pyridine compounds, intermediates compositions and methods of use” (Eli Lilly and Company, priority 1996, dated 1997)
